Experiments:
caspase-3 = molecular target: T1, caspase-3 (Homo sapiens, UniProt P42574); assay: Caspase-3 in red blood cells incubated with patient plasma (Example 9); type: cell-based
T1 construct: endogenous in cells; host or cells: human red blood cells incubated with patient plasma
T1 sequence (P42574 29-175 limits assumed): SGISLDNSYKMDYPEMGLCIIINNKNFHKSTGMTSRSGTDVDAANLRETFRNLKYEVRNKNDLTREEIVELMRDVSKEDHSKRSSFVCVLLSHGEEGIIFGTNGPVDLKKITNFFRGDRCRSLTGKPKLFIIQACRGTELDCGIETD
T1 sequence (P42574 176-277 limits assumed): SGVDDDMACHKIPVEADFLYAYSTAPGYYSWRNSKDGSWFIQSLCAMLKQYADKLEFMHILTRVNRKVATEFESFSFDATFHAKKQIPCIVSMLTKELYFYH

[1] = in vivo; cited from earlier work
caspase-1 = molecular target: T2, caspase-1 (Homo sapiens, UniProt P29466); assay: Ex vivo active caspase-1 in CD4 T cells, whole blood incubated with caspase inhibitors with or without nigericin (Example 9); type: cell-based; conditions: inhibitor incubation, 24 hrs later with or without nigericin; for T-helper cell caspase-1 expression: COVID-19 whole blood samples
T2 sequence (P29466 120-297 limits assumed): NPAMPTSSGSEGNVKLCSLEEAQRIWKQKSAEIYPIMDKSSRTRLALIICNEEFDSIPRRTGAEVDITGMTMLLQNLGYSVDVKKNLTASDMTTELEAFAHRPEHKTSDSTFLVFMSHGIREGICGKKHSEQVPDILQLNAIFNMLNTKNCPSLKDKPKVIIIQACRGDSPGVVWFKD
T2 sequence (P29466 317-404 limits assumed): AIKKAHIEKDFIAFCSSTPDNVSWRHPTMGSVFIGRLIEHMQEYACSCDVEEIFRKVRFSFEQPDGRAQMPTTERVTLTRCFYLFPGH

[2] = test system: red blood cell (RBC) layer in the PBMC layer (RBC aggregation); assay: “Red ring” (contaminating RBC layer in PBMC layer) in COVID-19 patient samples; type: cell-based, human; conditions: PBMCs from COVID-19 patient samples, 1 micromolar, room temperature, 17 hours
Description: One of the observations made during the preparation of peripheral blood mononuclear cells (PBMC) for some of the experiments described herein was the presence of a contaminating red blood cell (RBC) layer in the PBMC layer, which was referred to as a “red ring”. This “red ring” was present in all COVID-19 patient samples, with no difference between critically ill patients and those who were only on supportive care outside the ICU setting (see FIG. 12A).
When PBMCs isolated from COVID-19 patient samples were incubated with Emricasan (1 micromolar) at room temperature for 17 hours, a decrease in the “red ring” was observed.

ACE-2 receptor = conditions: subsequent reports; cited from earlier work
[3] = molecular target: T3, main protease of SARS-COV-2 (Severe acute respiratory syndrome coronavirus 2, UniProt P0DTD1); conditions: subsequent reports; cited from earlier work
T3 construct: the main protease of SARS-COV-2

mild COVID-19 = assay: Phase 1 double-blinded placebo-controlled safety and tolerability study in symptomatic outpatient mild-COVID-19 patients (Example 10); type: in vivo, human
Protocol: A double-blinded, placebo-controlled randomized safety and tolerability study (1:1 active: placebo) was performed in a number symptomatic outpatient mild-COVID-19 patients receiving standard of care therapy. A total of 13 patients were enrolled at a single site in New York City. Treatment involved administering Emricasan (EMR) (or placebo) at 25 mg BID dosing for 14 days, with follow-up for an additional month. […] This study was thus designed to evaluate safety and tolerability, with the primary endpoint being the difference, if any, between treatment-related adverse events (AEs), including severe adverse events (SAEs), if any, in the active (EMR) and placebo groups through day 14. The pharmacokinetics (PK) of EMR has been extensively studied in earlier clinical trials. Accordingly, patients in this Phase 1 study were sampled at the end of the study to confirm that Emricasan pharmacokinetics was not altered in COVID-19 patients. Secondary endpoints included various clinical and laboratory measures and patient reported outcomes (PROs) using a COVID-19-related assessment tool.

Caspase 1 = Caspase 1 (Homo sapiens, UniProt P29466); assay: Active caspase-1 FLICA flow cytometry, whole blood from COVID-19 (+) patients incubated with Emricasan (Example 7); type: cell-based; parameters: dose or concentration left out as unconfirmed; conditions: 17 hours (overnight) room temperature on a rocker, 3 samples from COVID-19 patients
Protocol: Whole blood from COVID-19 (+) patients was incubated either (A) without addition of Emricasan (Untreated) or (B) with Emricasan (Sigma Aldrich, MO, SML2227-5 MG), 1 μM final concentration for 3.5 hours at room temperature (Treated). Following incubation with or without Emricasan, PBMCs were purified using an Accuspin System—Histopaque 1077 (Sigma Aldrich, MO, A6929) as per the manufacturer's instructions. Purified Treated and Untreated PBMCs were incubated with nigericin (Immunochemistry Technologies, MN) as per the manufacturer's instructions for 2 hours. […] PMBCs were washed with cell wash buffer (Immunochemistry Technologies, MN) to remove unbound FLICA probes. Washed PBMCs were FACS-sorted using CD45 PE-CY7 [HI30], CD3 AF700 [UCHT1], CD4 PE [RPA-T4], CD45RO PerCP-EF710 [UCHL1], and Viability Dye 780 (Thermo Fisher Scientific, Carlsbad, CA) to identify viable CD3-cells as well as CD3+ cells and CD3+CD4+ T cells. Lymphocytes were identified using a standard gating schematic that incorporated gating of lymphocytes on a FSC/SSC plot and singlets on a FSC-A/FSC-H plot. Lymphocytes were further identified as CD45+ on a CD45/SSC plot and subsequent CD3−, CD3+, and CD3+CD4+ cells were identified on a CD45+CD3/CD4 plot.
In another experiment, whole blood was incubated with […] Emricasan for 17 hours (overnight between 5 PM to 10 AM) at room temperature on a rocker. […]

Row | SMILES | RBC caspase-3 up-regulation (caspase-3; healthy subjects' RBCs, COVID-19 plasma incubated samples) | RBC baseline caspase-3 expression levels (caspase-3; influenza-plasma incubated samples) | safety and tolerance profile [1] | T-helper cell caspase-1 expression (caspase-1) | T-helper cell caspase-1 upregulation (caspase-1; healthy subjects' whole blood) | “red ring” (contaminating RBC layer in PBMC layer) [2] | inhibition of ACE-2 receptor binding activity for SARS-COV-2 (ACE-2 receptor) | inhibition of main protease activity [3] | serious adverse events (mild COVID-19; 25 mg BID 14 days, mild COVID-19 outpatients) | safety and tolerability (mild COVID-19; 25 mg BID 14 days, during 2 weeks of dosing and at week 10 follow up, compared to placebo) | resolution of symptoms most commonly associated with mild COVID-19 (cough, headache, fatigue) (mild COVID-19; patients who completed treatment, at day 7, continued through Day 45) | samples showing inhibition of nigericin-induced Caspase-1 activity (Caspase 1)
1 | C[C@H](NC(=O)C(=O)Nc1ccccc1C(C)(C)C)C(=O)N[C@@H](CC(=O)O)C(=O)COc1c(F)c(F)cc(F)c1F [Emricasan, (3S)-3-{[(2S)-2-{[2-(2-tert-butylanilino)-2-oxoacetyl]amino}propanoyl]amino}-4-oxo-5-(2,3,5,6-tetrafluorophenoxy) pentanoic acid] | suppressed | did not change | excellent safety and tolerance profile | suppressed | prevented its upregulation | decrease | inhibit the binding activity | may also inhibit | no reports of serious adverse events | safe and well tolerated | complete resolution | ⅓
2 | CCO[C@@H]1OC(=O)C[C@@H]1NC(=O)[C@@H]1CCCN1C(=O)[C@@H](NC(=O)c1ccc(N)c(Cl)c1)C(C)(C)C [VX765, Belnacasan] | – | – | – | did not show a strong similar suppressive effect | – | – | – | – | – | – | – | –

Reference: US20250288547A1, “TREATMENT OF DISEASES CAUSED BY RNA VIRUSES” (Amerimmune LLC, priority 2021, published 2025)
